# Where no end group is shown, it is not given here.
# Legend:
# Assay type in all cases: cell-based
# [1] = test system: eight standard bacterial strains; conditions: only some Gram-negative and Gram-positive strains; range stated for the group of peptides
# Method: (§1) The standard bacterial strains used for antimicrobial activity assays include Staphylococcus aureus ATCC (American Type Culture Collection, Manassas, VA, USA) 6538, Bacillus cereus ATCC 10876, Enterococcus faecalis ATCC 29212, Streptococcus […] 27956, Streptococcus dysgalactiae ATCC 27957, Streptococcus equi subsp. zooepidemicus ATCC 43079, Escherichia coli ATCC 25922, and Pseudomonas aeruginosa ATCC 27853. Most bacterial strains were cultured in LB medium except for E. faecalis and streptococci, which were cultivated in brain heart infusion (BHI) broth (BD Bioscience). […] Experiments were conducted in triplicate.
# [2] = test system: Streptococcus agalactiae ATCC 27956; experiment: microbe, parasite or virus in culture
# Method: as §1
# [3] = test system: Staphylococcus aureus ATCC 6538; experiment: microbe, parasite or virus in culture
# Method: as §1
# [4] = test system: Bacillus cereus ATCC 10876; experiment: microbe, parasite or virus in culture
# Method: as §1
# [5] = test system: Streptococcus equi subsp. zooepidemicus ATCC 43079; experiment: microbe, parasite or virus in culture
# Method: as §1
# [6] = test system: Pseudomonas aeruginosa ATCC 27853; experiment: microbe, parasite or virus in culture
# Method: as §1
# [7] = test system: Streptococcus dysgalactiae ATCC 27957; experiment: microbe, parasite or virus in culture
# Method: as §1
# [8] = test system: Enterococcus faecalis ATCC 29212; experiment: microbe, parasite or virus in culture
# Method: as §1
# [9] = test system: Escherichia coli ATCC 25922; experiment: microbe, parasite or virus in culture; conditions: MH broth, WST colourimetric, 1.5 × 10^5 cells/well, 37 °C 6 h + 2 h reagent, A450, triplicate
# Method: as §1
# [10] = test system: Staphylococcus haemolyticus; experiment: MIC against field isolate from milk with high SCC; conditions: field isolate from milk; WST colourimetric, 37 °C 6 h; triplicate
# Method: (§2) All plates were cultivated aerobically.
# (§3) Experiments were conducted in triplicate.
# [11] = test system: Staphylococcus chromogenes; experiment: microbe, parasite or virus in culture; conditions: field isolate from milk; WST colourimetric, 37 °C 6 h; triplicate
# Method: as §2, §3
# Staphylococcus xylosus = experiment: microbe, parasite or virus in culture; conditions: field isolate from milk; WST colourimetric, 37 °C 6 h; triplicate
# Method: as §2, §3
# [12] = test system: Staphylococcus epidermidis; experiment: microbe, parasite or virus in culture; conditions: field isolate from milk; WST colourimetric, 37 °C 6 h; triplicate
# Method: as §2, §3
# [13] = ATCC 27956, BHI broth, WST colourimetric, 37 °C 6 h, triplicate
# [14] = ATCC 10876, MH broth, WST colourimetric, 37 °C 6 h, triplicate
# [15] = ATCC 43079, BHI broth, WST colourimetric, 37 °C 6 h, triplicate
# [16] = ATCC 27853, CAMHB, WST colourimetric, 37 °C 6 h, triplicate
# [17] = ATCC 27957, BHI broth, WST colourimetric, 37 °C 6 h, triplicate
# [18] = ATCC 29212, BHI broth, WST colourimetric, 37 °C 6 h, triplicate
Substance,"MICs, range over the strains against which active [1] [µM]","Minimal inhibitory concentration, Streptococcus agalactiae ([2]; ATCC 27956, 6 h)","Minimal inhibitory concentration, Staphylococcus aureus ([3]; ATCC 6538, 6 h)","Minimal inhibitory concentration, Bacillus cereus ([4]; ATCC 10876, 6 h)","Minimal inhibitory concentration, Streptococcus equi subsp. zooepidemicus ([5]; ATCC 43079, 6 h)","Minimal inhibitory concentration, Pseudomonas aeruginosa ([6]; ATCC 27853, 6 h)","Minimal inhibitory concentration, Streptococcus dysgalactiae ([7]; ATCC 27957, 6 h)","Minimal inhibitory concentration, Enterococcus faecalis ([8]; ATCC 29212, 6 h)","Minimal inhibitory concentration, Streptococcus agalactiae [2, 13]","Minimal inhibitory concentration, Escherichia coli [9]","Minimal inhibitory concentration, Staphylococcus aureus ([3]; ATCC 6538, MH broth, WST colourimetric, 37 °C 6 h, triplicate) [µg/mL]","Minimal inhibitory concentration, Bacillus cereus [4, 14]","Minimal inhibitory concentration, Streptococcus equi subsp. zooepidemicus [5, 15]","Minimal inhibitory concentration, Pseudomonas aeruginosa [6, 16]","Minimal inhibitory concentration, Streptococcus dysgalactiae [7, 17]","Minimal inhibitory concentration, Enterococcus faecalis [8, 18]","Minimal inhibitory concentration, Staphylococcus haemolyticus [10]","Minimal inhibitory concentration, Staphylococcus chromogenes [11]","Minimal inhibitory concentration, Staphylococcus xylosus (Staphylococcus xylosus)","Minimal inhibitory concentration, Staphylococcus epidermidis [12]"
GGLRSLGRKILRAWKKYGPIIVPIIRIG [BMAP-28],0.7 to 18.8,> 40 (12.6) μg/mL,5 (1.6) μg/mL,7 (2.2) μg/mL,> 40 (12.6) μg/mL,9 (2.9) μg/mL,> 40 (12.6) μg/mL,15 (4.8) μg/mL,–,–,–,–,–,–,–,–,–,–,–,–
GRFRRLRKKTRKRLKKIGKVLKWIPPIVGSIPLGCG [PMAP-36],–,> 40 (9.6) μg/mL,9 (2.2) μg/mL,28 (6.7) μg/mL,> 40 (9.6) μg/mL,8 (1.9) μg/mL,> 40 (9.6) μg/mL,> 40 (9.6) μg/mL,–,–,–,–,–,–,–,–,–,–,–,–
ILGRLRDLLRRGGRKIGQGLERIGQRIQGFFSNREPMEES [HA-CATH],0.7 to 18.8,> 40 (8.6) μg/mL,26 (5.6) μg/mL,25 (5.4) μg/mL,> 40 (8.6) μg/mL,> 40 (8.6) μg/mL,> 40 (8.6) μg/mL,> 40 (8.6) μg/mL,–,–,–,–,–,–,–,–,–,–,–,–
KRRGSVTTRYQFLMIHLLRPKKLFA [EA-CATH1],0.7 to 18.8,> 40 (13.1) μg/mL,41 (13.4) μg/mL,> 40 (13.1) μg/mL,> 40 (13.1) μg/mL,19 (6.1) μg/mL,> 40 (13.1) μg/mL,30 (9.8) μg/mL,–,–,–,–,–,–,–,–,–,–,–,–
"Lysostaphin: bacteriocin produced by Staphylococcus simulans, purchased (Sigma Aldrich)",–,–,–,–,–,–,–,–,> 160 (29.7) μg/mL,> 160 (29.7) μg/mL,1,> 160 (29.7) μg/mL,> 160 (29.7) μg/mL,> 160 (29.7) μg/mL,> 160 (29.7) μg/mL,> 160 (29.7) μg/mL,1 (37.3) μg/mL,0.25 (9.3) μg/mL,0.5 (18.7) μg/mL,1 (37.3) μg/mL
"MRGGRLCYCRRRFCVCVGR (disulfide (positions not given here)) [PG-1, pig cathelicidin produced recombinantly with a GFP-scaffold system, CNBr cleaved, disulfide bonds installed]",0.7 to 18.8,–,–,–,–,–,–,–,> 40 (17.5) μg/mL,23 (10.0) μg/mL,–,> 40 (17.5) μg/mL,> 40 (17.5) μg/mL,20 (8.7) μg/mL,32 (14.0) μg/mL,> 40 (17.5) μg/mL,–,–,–,–

# From paper PMC11566078, “Bactericidal activities and biochemical features of 16 antimicrobial peptides against bovine-mastitis causative pathogens” (Veterinary Research, 2024)
